According to patent publication US7026282B1, “Peptide antagonists of the human urokinase receptor and method for selecting them” (Cancerforskningsfonden AF 1989 (Fonden Til Fremme AF …, priority 1998, dated 2006):
Positions of bridges follow the written chain, without caps; N, C: chain ends. Non-standard residues stand in square brackets, D forms with d. Residues, ends and D or L forms follow the SMILES beside them. Chains are numbered I, II in the order given. No end group written: not given here. Cha = N[C@@H](CC1CCCCC1)C(=O)O; βAla = NCCC(=O)O

Tests used:
[1] = target: T1, neuramimidase-treated human suPAR (soluble recombinant uPAR) (Homo sapiens, UniProt Q03405); assay: Biacore Binding Assay (surface plasmon resonance), ligand binding to immobilised suPAR; details: for koff: Biacore, 5° C., immobilised suPAR, read-out: kdiss (dissociation rate constant, off-rate)
T1 construct: A soluble recombinant variant of human uPAR (suPAR) was expressed in Chinese hamster ovary (dhfr) cells; made in house; host or cells: Chinese hamster ovary (dhfr) cells
Experimental: Association rate constants (kass), dissociation rate constants (kdiss) and equilibrium binding constants (kd) for various synthetic peptides and receptor binding derivatives of human uPA were determined by surface plasmon resonance (R. Karlsson et al. (1991) J. Immunol. Meths. 145:229–240) using a BIAcore2000™ instrument (Pharmacia Biosensor, Uppsala, Sweden). Due to the low isoelectric point of uPAR (pI≈4.5) terminal sialic acid residues were removed from its N-linked carbohydrates to facilitate chemical immobilisation on the sensor chip. This was accomplished by incubating purified suPAR (1 mg/ml in 50 mM phosphate, 150 mM NaCl, pH 7.4) with 5 μg/ml neuramimidase for 4 hours at 37° C. […] Coupling of the neuramimidase-treated suPAR to a BIAcore sensor chip was achieved by injection of 20 μg/ml suPAR in 10 mM sodium acetate pH 5.0 for 6 minutes at a flow rate of […] per minute using a carboxymethylated dextran matrix (CM5 sensor chip) preactivated with N-hydroxysuccinimide/N-ethyl-N′-[3-([…])propyl]carbodiimide according to the manufacturer's recommendations. Approximately 1,500–2,000 resonance units (RU) were immobilised by this procedure (corresponding to 1–2 ng suPAR/mrn^2).
Sensorgrams (RU versus time) were recorded (FIG. 2) at a flow rate of 10 μl per min at 5° C. using several different concentrations of the ligand (synthetic peptides, uPA, the amino-terminal fragment (ATF) of uPA, or the growth factor domain (GFD) of uPA) in the range of 10 to 1000 nM in running buffer (10 mM HEPES, 150 mM NaCl, 3 mM EDTA (pH 7.4) including 0.005% surfactant P-20). Stock solutions of peptides from combinatorial chemistry were made in DMSO (10 mg peptide/ml DMSO). The sensor chip was regenerated at the end of each run by injection of 0.1 M acetic acid, 0.5 M NaCl. Data obtained from parallel mock coupled flow cells (subjected to the coupling procedure in the presence of buffer only) served as blank sensorgrams for subtraction of changes in bulk refractive index. The sensorgrams obtained were analysed by non-linear least squares fitting using BIAevaluation 2.0 software (Pharmacia Biosensor, Uppsala, Sweden) assuming single-site association and dissociation models.
Purified human suPAR (1 mg/ml in 50 mM phosphate, 150 mM NaCl, pH 7.4) was incubated with 5 μg/ml neuramimidase for 4 hours at 37° C.
In order to couple the neuramimidase-treated suPAR to a BIAcore sensor chip, 20 μg/ml suPAR in 10 mM sodium acetate (pH 5.0) was injected for 6 minutes at a flow rate of 5 μl per minute using a carboxymethylated dextran matrix (CM5 sensor chip), thereby immobilising approximately 1,500–2,000 resonance units (RU), which correspond to 1–2 ng suPAR/mm^2. The CM5 sensor chip was preactivated with N-hydroxysuccinimide/N-ethyl-N′-[3-([…])propyl]carbodiimide in accordance with the manufacturer's recommendations.
Surface plasmon resonance sensorgrams (RU versus time) were recorded at a flow rate of 10 μl per min at 5° C. using several different concentrations of the ligand (i.e. the relevant peptide or GFD) in the range from 10 to 1000 nM in running buffer (10 mM HEPES, 150 mM NaCl, 3 mM EDTA (pH 7.4) including 0.005% surfactant P-20).
The sensor chip was regenerated at the end of each run by injection of 0.1 M acetic acid, 0.5 M NaCl.
Data from parallel mock coupled flow cells (subjected to the coupling procedure in the presence of buffer only) served as blank sensorgrams for subtraction of changes in bulk refractive index.
The obtained sensorgrams were analysed by non-linear least squares fitting using BIAevaluation 2.0 software (Pharmacia Biosensor, Uppsala, Sweden) assuming single-site ssociation and dissociation models.

[2] = Peptide stability in mouse serum ex vivo, read out by ATF cell-binding inhibition; type: in vitro ADME; details: 10% mouse serum, up to 24 hours, 37° C.
Experimental: Mouse blood was collected from anaesthetised mice (femal nu/nu-META/Bom (Bomholtgaard, Ry, Denmark)) by cardiac puncture. The blood samples were allowed to clot for 30 min at room temperature, followed by centrifugation at 1,000×g for 10 min at 20° C., and the sera were sterile filtered using 0.8 μm/0.2 μm filters (Acrodisc PF, Gelman Science, MI) and then stored at 4° C. until use. The peptide antagonists were added to fresh pooled mouse serum at the indicated concentrations (FIG. 5) and incubated at 37° C. for different periods, between 0 hours and 24 hours. Serum incubated samples were diluted 1:10 in binding buffer (0.1% bovine serum albumin and 5 mM Hepes in Eagles MEM supplemented with Glutamax-1, pH 7.4). Subsequently, cell binding experiments in the presence of ^125I-labelled human ATF were performed in duplicates as above, by preincubating MDA-MB-231 BAG cells at 37° C. 15 min with the 1:10 diluted serum incubated samples ± peptides. In parallel, peptides diluted in binding buffer alone were included as controls.
AE118 and AE78 (for comparison) were incubated at 37° C. in the presence of 10% mouse serum for different time intervals, up to 24 hours. The incubation mixtures were tested for their ability to inhibit binding of radio-labelled human uPA amino terminal fragment (ATF) to monolayer cultures of human MDA-MB-231 breast cancer cells, as described in Example 7.

[3] = Pharmacokinetic experiment: functional peptide in mouse serum after i.p. injection; type: in vivo; details: 62.5 mg/kg, 1 to 24 hours
Experimental: Female nu/nu-META/Bom mice were injected intraperitoneally (i.p) with a solution of the peptide AE 120 (6.25 mg/ml in 0.5% (w/v) poloxamer 237 in PBS, pH 7.3) at a dose of 62.5 mg/kg mouse weight. At different time points between 1 hour and 24 hours, blood was collected from anaesthetised mice by cardiac puncture. The blood samples were allowed to clot for 30 min at room temperature, followed by centrifugation at 1,000×g for 10 min at 20° C., and the sera were stored frozen at −80° C. prior to assay. The presence of functional peptide antagonists in serum was determined by diluting the serum samples 1:10 with binding buffer (0.1% bovine serum albumin and 5 mM Hepes in Eagles MEM supplemented with Glutamax-1, pH 7.4) and analysing the samples in cell binding experiments with MDA-MB-231 BAG cells and ^125I-labelled human ATF as described in Example 7. As an internal standard, AE120 was added exogenously to pooled mouse sera at final concentrations of 12.5 nM, 25 nM, 125 nM and 250 nM.

[4] = Mouse tolerance of peptide dosing; type: in vivo; details: 4 i.p. injections 8 hours apart, 1.38 mg each, total 5.52 mg per mouse
Experimental: Mice were given a series of 4 intraperitoneal injections, spaced 8 hours apart, of peptide AE120 dispersed in a poloxamer formulation containing 2.9% DMSO. Each injection delivered 1.38 mg of peptide in 200 μL of formula, so that each mouse received a total of 5.52 mg over the 24-hour study period.

uPAR-ATF interaction = uPAR-ATF interaction (Homo sapiens, UniProt Q03405); details: read-out: apparent inhibition constant; cited from earlier work
Sequence of uPAR-ATF interaction (Q03405 23-305 limits assumed): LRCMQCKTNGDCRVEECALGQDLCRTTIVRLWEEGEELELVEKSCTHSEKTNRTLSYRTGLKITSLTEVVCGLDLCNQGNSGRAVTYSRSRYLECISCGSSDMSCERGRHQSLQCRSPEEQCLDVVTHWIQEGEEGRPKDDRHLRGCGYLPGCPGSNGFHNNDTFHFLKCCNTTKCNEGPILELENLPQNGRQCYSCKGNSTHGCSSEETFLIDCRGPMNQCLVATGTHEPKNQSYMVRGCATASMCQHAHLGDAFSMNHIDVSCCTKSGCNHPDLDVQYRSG

Relative kdiss ([1]; relative to the Growth Factor Domain of uPA (GFD = 1.0)) | Compound | koff [1] | ability to inhibit ATF binding after incubation in mouse serum (stability) [2] | activity of peptide antagonist in mouse serum after dosing [3] | tolerance: effect on behaviour or well-being [4] | Ki (uPAR-ATF interaction)
– | CC(C)C[C@H](NC(=O)[C@H](Cc1ccc(O)cc1)NC(=O)[C@@H](CCCNC(=N)N)NC(=O)[C@@H](CO)NC(=O)[C@H](Cc1ccccc1)NC(=O)[C@H](CC1CCCCC1)NC(=O)[C@@H](N)CC(=O)O)C(=O)N[C@@H](Cc1c[nH]c2ccccc12)C(=O)N[C@@H](CO)C(=O)NCC(=O)NCCCC[C@H](NC(=O)CCNC(=O)CNC(=O)[C@H](CO)NC(=O)[C@H](Cc1c[nH]c2ccccc12)NC(=O)[C@H](CC(C)C)NC(=O)[C@H](Cc1ccc(O)cc1)NC(=O)[C@@H](CCCNC(=N)N)NC(=O)[C@@H](CO)NC(=O)[C@H](Cc1ccccc1)NC(=O)[C@H](CC1CCCCC1)NC(=O)[C@@H](N)CC(=O)O)C(=O)O [AE120, α-[DChaFsrYLWSGβA]-ε-[DChaFsrYLWSG]-K] (I: H-D[Cha]F[dS][dR]YLWSG[βAla]K-OH / II: H-D[Cha]F[dS][dR]YLWSG; amide I:12-II:C) | 3e-05 s⁻¹ | slight reduction | retained its activity in mouse serum for several hours | no visible sign of any effect on the behaviour or well-being of the mice | –
72.1 | AEPMPHSLNFSQYLWYT [AE78, reference compound] | 0.0101 s⁻¹ | lost the majority of its inhibitory activity | – | – | 10 nM
